Test system: urease
Test: Application in cat litter: ammonia formation from artificial cat urine (headspace sampling)
Conditions: litter coated with 0.1% (w/w) active material; artificial cat urine with urea and urease; headspace ammonia over 5 days; negative control = 100
Procedure: The efficiency of reducing ammonia formation in cat litter was tested with different fragrance raw materials that are shown in the table below (table 3).
In brief, the litter was coated with a final concentration of 0.1% (w/w) of active material respective to the dry litter material. In a glass bottle with a total volume of 5 l, the litter is treated with artificial cat urine that consists of an aqueous salt solution containing urea and urease. The development of ammonia is measured through headspace sampling with an ammonia sensitive detector over a period of 5 days.

SMILES	Relative ammonia formation in % [%]
CCC/C=C/C=O [HEXENAL TRANS-2, trans-2-hexenal]	32
CC/C=C\CCOC(=O)CCC [HEXENYL BUTYRATE CIS-3, cis-3-hexenyl butyrate]	65
CC/C=C\CCOC(=O)c1ccccc1O [HEXENYL […]-3, cis-3-hexenyl salicylate]	65
CC/C=C\CCOC(C)OCC (stereo not drawn) [LEAF ACETAL, cis-1-(1-Ethoxyethoxy)-3-hexene]	81

Test system: urease
Test: Screening of urease inhibition (colorimetric Phenol Red assay, 96 well plates)
Type: biochemical
Conditions: Table 2; fraction vs negative control; additive 0.1 w/w, urea 0.2% w/w, urease 0.5 U/ml, 1 h
Procedure: Urease catalyzed ammonia formation leads to a change in pH (alkalization). […] The enzymatic screening assay is described below. The colorimetric assay is conducted in 96 well plates in combination with a microplate spectrophotometer with Phenol Red as pH sensitive indicator.
In brief: the substrate urea, the fragrance raw material and the urease are mixed in the wells and the change in absorption at 560 nm is monitored for 1 h. The resulting absorbance curves are compared to untreated samples (negative controls, without inhibitors) and samples with commercially available NBPT inhibitor (positive control).

SMILES	Inhibition
CCCCNP(N)(N)=S [NBPT, reference compound]	1.00

Same assay, conditions: additive 0.1 w/w, urea 0.2% w/w, urease 0.5 U/ml, PBS pH 7.4, monitored 1 h

SMILES	Δ Absorbance at 1 h (560 nm)
CCCCNP(N)(N)=S [NBPT, reference compound]	0.00

Same assay, conditions: positive hits table; fraction vs negative control; additive 0.1 w/w, urea 0.2% w/w, urease 0.5 U/ml, 1 h

SMILES	Inhibition
CCOc1cc(C)ccc1O [2-ethoxy-4-methylphenol]	0.786
OC/C=C/c1ccccc1 [CINNAMIC ALCOHOL, (2E)-3-phenylprop-2-en-1-ol]	0.931
C/C=C/C(=O)C1C(C)=CCCC1(C)C (stereo not drawn) [DAMASCONE ALPHA, (E)-1-(2,6,6-trimethyl-1-cyclohex-2-enyl)but-2-en-1-one]	0.991
C/C=C/C(=O)C1=C(C)C=CCC1(C)C [D[…], (E)-1-(2,6,6-trimethyl-1-cyclohexa-1,3-dienyl)but-2-en-1-one]	0.985
C=CCc1ccc(O)c(OC)c1 [EUGENOL NAT., 2-Methoxy-4-(prop-2-en-1-yl)phenol]	0.908
Cc1ccc2c(c1)OC(=O)C2C (stereo not drawn) [FURAMINTON/TONKALACTONE ™, dimethyl-3,6-benzo-2(3H)-furanone]	0.669
CC1=C(O)C(=O)C(C)O1 (stereo not drawn) [FURANEOL, 4-Hydroxy-2,5-dimethyl-3-furanone]	0.985
CC(C)=CCC/C(C)=C/CO [GERANIOL 60 B, 2,6-Octadien-1-ol 3,7-dimethyl]	0.910
COc1ccccc1O [GUAIACOL, 2-Methoxyphenol]	0.718
CCC/C=C/C=O [HEXENAL TRANS-2, trans-2-hexenal]	0.961
CC/C=C\CCO [HEXENOL CIS-3, cis-3-hexenol]	0.888
CCC/C=C/CO [HEXENOL TRANS-2, trans-2-hexenol]	0.912
CC/C=C\CCOC(C)=O [HEXENYL ACETATE CIS-3, cis-3-hexenyl acetate]	0.723
CC/C=C\CCOC(=O)CCC [HEXENYL BUTYRATE CIS-3, cis-3-hexenyl butyrate]	0.999
CC/C=C\CCOC(=O)CCCCC [HEXENYL CAPROATE CIS-3, cis-3-hexenyl hexanoate]	0.824
CC/C=C\CCOC(=O)C(C)C [HEXENYL I[…]-3, cis-3-hexenyl isobutyrate]	0.865
CC/C=C\CCOC(=O)CC(C)C [HEXENYL I[…]-3, cis-3-hexenyl isovalerate]	0.724
CC/C=C\CCOC(=O)CC [HEXENYL […]-3, cis-3-hexenyl propionate]	0.956
CC/C=C\CCOC(=O)c1ccccc1O [HEXENYL […]-3, cis-3-hexenyl salicylate]	0.989
CC/C=C\CCOC(C)OCC (stereo not drawn) [LEAF ACETAL, cis-1-(1-Ethoxyethoxy)-3-hexene]	0.964
CCC(=O)/C=C/C1C(C)=CCCC1(C)C (stereo not drawn) [METHYL IONONE ALPHA/IFF, methyl ionone alpha]	0.936
CC(=O)/C(C)=C/C1C(C)=CCCC1(C)C (stereo not drawn) [METHYL IONONE GAMMA PURE/IFF, methyl ionone gamma]	0.942
CC(C)=CCC/C(C)=C\CO [NEROL 900, (2Z)-3,7-dimethylocta-2,6-dien-1-ol]	0.758
CC/C=C\CC/C=C/CO [NONADIENOL-2,6, 2,6-nonadien-1-ol]	0.885

Reference: patent publication US20250295826A1, “[…] UREASE INHIBITORS” (Symrise AG, priority 2022, published 2025)
